Counter-ions that a name gives are not always drawn.
What was measured:
[1] = system: ADP-induced platelet aggregation in rats; assay: Antiplatelet aggregation effect: ADP-induced platelet aggregation in PRP of rats after iv administration; format: in vivo; settings: single iv at the same molar dose, blood 3 h after administration, ADP final 20 μM
From the text: 1. Test objective: Evaluation and comparison of the antiplatelet aggregation treatment effect of each compound after administration at the same molar amount
70 rats were randomly and evenly grouped into 7 groups, i.e., solvent control group, comparative example 1 (2-Oxo-clopidogrel) group, comparative example 2 (Vicagrel) group, compound 1 group, compound 2 group, compound 7 group and compound 8 group.
Rats were anesthetized by intraperitoneal injection of 1.5% sodium pentobarbital.
The anesthetized animals were transferred to an operating platform.
The rats were injected with anesthetic, and fixed on the operating platform in a supine position after the whole body of the rat became soft. After routine disinfection, the abdomen of the rat was incised along the abdominal midline using surgical scissors to open the abdominal cavity. The adipose tissue around the blood vessels was gently separated with a small forceps, and the excess adipose tissue covering the blood vessels was then wiped and removed with the cotton ball to make the blood vessels clearly visible (the abdominal aorta is located anterior to the vertebral column, and the abdominal vein appears thicker and darker in color than the abdominal aorta). The blood vessel was first fixed to prevent it from moving as much as possible. The left thumb and index finger fixed the adipose tissue and other organs on both sides of the blood vessel, while the ring finger pressed on the blood vessel at the upper end of the needle insertion point to lower the blood pressure, which can prevent blood spurting. The puncture needle was held with the right hand, with the bevel of the needle tip facing downward. The needle was inserted at an angle of about 30 degrees and advanced towards the heart to a suitable depth of about 5 mm. Once the blood had started to enter the needle via its tip, the other end of the blood collection needle was inserted into the vacuum tube. After the insertion of needle, the needle tip could be clamped with a hemostatic clip to prevent it from puncturing the blood vessel if the rat struggled due to insufficient anesthesia.
Three hours after the administration, the rats were anesthetized with sodium pentobarbital. Then blood was collected from the abdominal aorta, added with 3.8% sodium citrate (1:9) as an anticoagulant, mixed evenly and centrifuged at 200 g for 10 min. The supernatant was harvested to obtain the platelet-rich plasma (PRP), and the residual plasma was then centrifuged at 1600 g for 15 min to obtain the resulting supernatant as platelet-poor plasma (PPP).
Platelet aggregation rate was measured using a platelet aggregometer (model: Agg RAM, Helena, USA). The PPPs corresponding to the PRPs to be tested in each channel were first used to correct the light transmission, and the PPPs were removed after the correction. A cuvette added with 225 μl of PRP to be tested was then placed in each channel, and added with a stirrer, then ADP (with a final concentration of 20 μM). The platelet aggregometer immediately began to measure the platelet aggregation rate.

[2] = Pharmacokinetic study in SD rats, 2-Oxo-clopidogrel in plasma by LC/MS/MS; format: in vivo; settings: SD, rat, in vivo
From the text: After being administered via single gavage at the same molar amount, the pharmacokinetic characteristics of each compound were investigated, and the main pharmacokinetic parameters were compared.
Each test compound was accurately weighed separately into a clean drug container, dissolved with appropriate amount of Solutol, shaken by vortex, added with purified water, ultrasonicated, and shaken by vortex until the compound was completely dissolved. All the formulations were freshly prepared on the day of administration.
Thirty healthy adult SD rats were administered via gavage.
Grouping and Fasting: SD rats were randomly grouped, with 6 rats per group, and administered with the corresponding compounds via gavage according to Table 3.
Sample Collection and Processing: 0.2 ml of blood was collected at different time points of before (0 h) and 5 min, 15 min, 30 min, 1 h, 2 h, 4 h, 8 h, and 24 h after the administration. After the anticoagulation with EDTA-K2 was completed, the blood was centrifuged at 4° C. for 5 min, and then the plasma was separated and stored at −80° C. for later measurement.
Measurement: The blood drug concentration of 2-Oxo-clopidogrel in all PK plasma samples was measured by LC/MS/MS method, and the pharmacokinetic parameters of individual compounds were calculated by using software WinNonlin 7.2.

[3] = Influencing factor test (high temperature, high humidity, light); format: physicochemical; settings: high temperature (60° C.), two days
Experimental: Test Methods: The samples of the compound 2 and comparative example 2 (Vicagrel) were weighed and placed in weighing bottles, respectively, and the weighing bottles were placed under the conditions of high temperature (60° C.), high humidity (RH 80%), and light (5000 Lux), respectively.

Solubility study = format: physicochemical; settings: 25° C. to 30° C.
Experimental: Samples of the example compound 2 and comparative example 2 (Vicagrel) were accurately weighed. Under the condition of 25° C. to 30° C., 1 ml of physiological saline and 1 ml of a buffer (pH 1.2) were taken, and added with 10 mg of each compound, respectively. The compound 2 of the present disclosure had excellent solubility, which can satisfy the demand for the formulation into an injection with an effective concentration in clinical, while the solubility of the comparative example 2 was extremely low and it cannot satisfy the demand for injection, and the addition of additional solubilizer may pose potential safety risks.

hERG potassium channel = target: T1, hERG potassium channel (Homo sapiens, UniProt Q12809); assay: cell-based; settings: IC50 (μM), inhibition of cardiac hERG potassium channel, manual patch-clamp, stably overexpressed hERG channel
T1 construct: expressed in transfected cells
From the text: Test Example 2: Effect of Compounds on Current in Stably Overexpressed hERG Channel

T1 sequence (Q12809 whole entry): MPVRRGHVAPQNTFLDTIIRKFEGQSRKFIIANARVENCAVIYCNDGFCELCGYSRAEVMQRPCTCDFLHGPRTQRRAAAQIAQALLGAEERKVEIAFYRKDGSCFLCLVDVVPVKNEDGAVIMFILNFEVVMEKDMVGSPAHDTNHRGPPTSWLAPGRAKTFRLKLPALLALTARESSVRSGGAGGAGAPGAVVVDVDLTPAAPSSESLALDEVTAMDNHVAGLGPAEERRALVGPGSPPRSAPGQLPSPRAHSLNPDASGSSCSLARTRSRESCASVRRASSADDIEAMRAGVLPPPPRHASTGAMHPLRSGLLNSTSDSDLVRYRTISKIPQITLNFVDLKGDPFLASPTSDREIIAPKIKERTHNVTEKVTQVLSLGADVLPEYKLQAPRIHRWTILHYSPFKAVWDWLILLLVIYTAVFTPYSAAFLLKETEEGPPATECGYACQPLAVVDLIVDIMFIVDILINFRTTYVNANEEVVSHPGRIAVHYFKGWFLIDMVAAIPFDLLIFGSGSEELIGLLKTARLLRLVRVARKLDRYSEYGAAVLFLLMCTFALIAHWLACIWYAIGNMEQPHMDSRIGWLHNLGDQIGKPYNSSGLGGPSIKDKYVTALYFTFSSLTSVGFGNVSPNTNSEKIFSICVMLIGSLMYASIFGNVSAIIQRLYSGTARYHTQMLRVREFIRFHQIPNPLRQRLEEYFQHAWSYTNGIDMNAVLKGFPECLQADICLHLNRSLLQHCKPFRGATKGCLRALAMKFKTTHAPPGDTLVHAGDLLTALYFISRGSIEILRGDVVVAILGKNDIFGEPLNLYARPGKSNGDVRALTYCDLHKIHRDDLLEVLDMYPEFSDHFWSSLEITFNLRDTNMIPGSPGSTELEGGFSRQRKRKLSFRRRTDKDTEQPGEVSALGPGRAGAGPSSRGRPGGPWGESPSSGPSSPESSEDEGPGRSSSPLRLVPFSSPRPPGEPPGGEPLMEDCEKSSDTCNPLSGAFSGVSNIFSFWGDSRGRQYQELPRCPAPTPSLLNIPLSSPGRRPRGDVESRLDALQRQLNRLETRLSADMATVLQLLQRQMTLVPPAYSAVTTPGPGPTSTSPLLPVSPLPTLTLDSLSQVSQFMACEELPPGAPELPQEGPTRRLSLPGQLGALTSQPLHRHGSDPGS

SMILES	Platelet aggregation rate (%) ([1]; solvent control 76.06 ± 3.29)	IC50 (hERG potassium channel) [µM]	also measured
COC(=O)[C@H](c1ccccc1Cl)N1CCC2SC(=O)C=C2C1 (stereo partly shown) [Comparative Example 1, 2-Oxo-clopidogrel, reference compound]	31.32 ± 6.07 ^ %		Platelet aggregation rate (%) ([1]; solvent control 76.06 ± 3.29, listed as comparative example 1): 31.32±6.07%; AUC0-last [2]: 60.15 ± 14.22 ng·h/mL; Cmax [2]: 38.48 ± 13.51 ng/mL; T1/2 [2]: 70.8 ± 12.6 min; Tmax [2]: 37.8 ± 9 min
COC(=O)[C@H](c1ccccc1Cl)N1CCc2sc(OC(C)=O)cc2C1 [Comparative Example 2, Vicagrel, reference compound]	39.32 ± 12.38 ^ %		change in appearance and characteristics [3]: from a white solid to a yellowish-brown oil; Solubility, pH 1.2 buffer (Solubility study; 10 mg compound added to 1 ml buffer (pH 1.2)): < 0.5 mg/mL; Solubility, Physiological saline(1 ml) (Solubility study; 10 mg compound added to 1 ml physiological saline): insoluble; Platelet aggregation rate (%) ([1]; solvent control 76.06 ± 3.29, listed as comparative example 2): 39.32±12.38%
COC(=O)[C@H](c1ccccc1Cl)N1CCc2sc(OC(=O)N3CCN(C)CC3)cc2C1 [Compound 1, (S)-5-(1-(2-chlorophenyl)-2-methoxy-2-oxyethyl)-4,5,6,7-tetrahydrothieno[3,2-c]pyridin-2-yl 4-methylpiperazine-1-carboxylate]	24.08 ± 6.00 %	20.5	Platelet aggregation rate (%) ([1]; solvent control 76.06 ± 3.29, listed as compound 1): 24.08±6.00%
CCCN1CCN(C(=O)Oc2cc3c(s2)CCN([C@H](C(=O)OC)c2ccccc2Cl)C3)CC1 [Compound 3, (S)-5-(1-(2-chlorophenyl)-2-methoxy-2-oxyethyl)-4,5,6,7-t etrahydrothieno[3,2-c]pyridin-2-yl-4-propylpiperazine-1-carboxylate]		15.2	
COC(=O)[C@H](c1ccccc1Cl)N1CCc2sc(OC(=O)N3CCN(C4CC4)CC3)cc2C1 [Compound 4, (S)-5-(1-(2-chlorophenyl)-2-methoxy-2-oxyethyl)-4,5,6,7-tetrahydrothieno[3,2-c]pyridin-2-yl 4-cyclopropylpiperazine-1-carboxylate]		16.4	
COC(=O)[C@H](c1ccccc1Cl)N1CCc2sc(OC(=O)N3CCN(C4CCCC4)CC3)cc2C1 [Compound 5, (S)-5-(1-(2-chlorophenyl)-2-methoxy-2-oxyethyl)-4,5,6,7-tetrahydrothieno[3,2-c]pyridin-2-yl 4-cyclopentylpiperazine-1-carboxylate]		15.8	
COC(=O)[C@H](c1ccccc1Cl)N1CCc2sc(OC(=O)N3CCN(C4CCCCC4)CC3)cc2C1 [Compound 6, (S)-5-(1-(2-chlorophenyl)-2-methoxy-2-oxyethyl)-4,5,6,7-tetrahydrothieno[3,2-c]pyridin-2-yl 4-cyclohexylpiperazine-1-carboxylate]		14.9	
COC(=O)[C@H](c1ccccc1Cl)N1CCc2sc(OC(=O)N3CCC(N4CCCCC4)CC3)cc2C1 [Compound 7, (S)-5-(1-(2-chlorophenyl)-2-methoxy-2-oxyethyl)-4,5,6,7-tetrahydrothieno[3,2-c]pyridin-2-yl [1,4′-bipiperidine]-1′-carboxylate]	27.59 ± 6.99 %	25.4	Platelet aggregation rate (%) ([1]; solvent control 76.06 ± 3.29, listed as compound 7): 27.59±6.99%
COC(=O)[C@H](c1ccccc1Cl)N1CCc2sc(OC(=O)N3CCC(N4CCCCC4)CC3)cc2C1 [Compound 8, (S)-5-(1-(2-chlorophenyl)-2-methoxy-2-oxyethyl)-4,5,6,7-t etrahydrothieno[3,2-c]pyridin-2-yl [1,4′-bipiperidine]-1′-carboxylate hydrochloride]		27.3	Platelet aggregation rate (%) ([1]; solvent control 76.06 ± 3.29, hydrochloride): 27.13 ± 6.50 %
COC(=O)[C@H](c1ccccc1Cl)N1CCc2sc(OC(=O)N3CCC(C4CCN(C)C4)CC3)cc2C1 (stereo partly drawn) [Compound 9, 5-((S)-1-(2-chlorophenyl)-2-methoxy-2-oxyethyl)-4,5,6,7-tetrahydrothieno[3,2-c]pyridin-2-yl-4-(1-methylpyrrolidine-3-yl) piperidine-1-carboxylate]		27.2	
COC(=O)[C@H](c1ccccc1Cl)N1CCc2sc(OC(=O)N3CCC(N4CCN(C)CC4)CC3)cc2C1 [Compound 10, (S)-5-(1-(2-chlorophenyl)-2-methoxy-2-oxyethyl)-4,5,6,7-tetrahydrothieno[3,2-c]pyridin-2-yl-4-(4-methylpiperazine-1-yl) piperidine-1-carboxylate]		25.9	

From patent US20250243218A1, “NOVEL CARBAMATE COMPOUND AND USE THEREOF” (CHENGDU SHIBEIKANG BIOMEDICAL TECHNOLOGY CO., LTD., priority 2022, published 2025)
